The record followed here is patent publication US20240409573A1, “CALICHEAMICIN DERIVATIVES AND ANTIBODY DRUG CONJUGATES THEREOF” (priority 2017, published 2024).

A value given as a limit tells only on which side of the number the result lay.

Assay [1] deals with Raji cells, CD33-non-expressing. As to the kind of experiment: In vitro cell assay, cell viability by MTS, Raji. Type of assay: cell-based. The following applies: Homo sapiens, 96 h, read-out: Average IC50, Raji. As to the method: (§1) Her2-Target expressing (BT474 (breast cancer), N87 (gastric cancer), MDA-MB-361-DYT2 (breast cancer)) or Her2-non-expressing (MDA-MB-468, HT29) cells, or 0033-target expressing HL60, HEL92.1.7, NB4, TF-1 or 0033-non-expressing (Raji) cells were seeded in 96-well cell culture plates for 24 hours before treatment. Cells were treated with 3-fold serially diluted antibody-drug conjugates or free compounds (i.e., no antibody conjugated to the drug) in duplicate at 10 concentrations. Cell viability was determined by CellTiter 96® AQueous One Solution Cell Proliferation MTS Assay (Promega, Madison WI) 96 hours after treatment. Relative cell viability was determined as percentage of untreated control. IC50 values were calculated using a four parameter logistic model #203 with XLfit v4.2 (IDBS, Guildford, Surry, UK). Results are shown below in Table 3 (for payloads), Table 4 (for Herceptin conjugates), and Table 5 (for CD33 conjugates).

Assay [2] relates to HL60 cells, CD33-target expressing. Briefly: In vitro cell assay, cell viability by MTS, HL60. Conditions: Homo sapiens, HL-60, 96 h, read-out: Average IC50, HL-60. In kind it is cell-based. As to the method:
as §1

Assay [3] relates to HEL92.1.7 cells, CD33-target expressing. As to the kind of experiment: In vitro cell assay, cell viability by MTS, HEL92.1.7. In kind it is cell-based. The following applies: Homo sapiens, HEL 92.1.7, 96 h, read-out: Average IC50, HEL92.1.7. As to the method: as §1
Assay [4] deals with HT29 cells, Her2-non-expressing. As to the kind of experiment: In vitro cell assay, cell viability by MTS, HT29. Type of assay: cell-based. Conditions: Homo sapiens, HT-29, 96 h, read-out: Average IC50, HT29. The procedure:
as §1

In assay [5] the test system is MDA-MB-361-DYT2 (breast cancer) cells, Her2-target expressing. Briefly: In vitro cell assay, cell viability by MTS, MDA-MB-361-DYT2. Type of assay: cell-based. The following applies: 96 h, read-out: Average IC50, MDA-MB-361-DYT2. The procedure:
as §1

The subject of assay [6] is NB4 cells, CD33-target expressing. Briefly: In vitro cell assay, cell viability by MTS, NB4. Type of assay: cell-based. The following applies: Homo sapiens, NB-4, 96 h, read-out: Average IC50, NB4. The procedure: as §1
The subject of assay [7] is TF-1 cells, CD33-target expressing. As to the kind of experiment: In vitro cell assay, cell viability by MTS, TF-1. Type of assay: cell-based. The following applies: Homo sapiens, TF-1, 96 h, read-out: Average IC50, TF-1. The procedure: as §1
Assay [8] concerns N87 (gastric cancer) cells, Her2-target expressing. Briefly: In vitro cell assay, cell viability by MTS, N87. Type of assay: cell-based. Conditions: 96 h, read-out: Average IC50, N87. The procedure:
as §1

Assay [9] deals with TF-1 AML xenograft tumors. As to the kind of experiment: TF-1 AML subcutaneous xenograft model. Conditions: Mylotarg dosed at 1 mg/kg Q4dx4 intravenously. In kind it is in vivo, female Athymic nu/nu mice. As to the method: The cyno-human chimeric anti 0033 antibody, 11A1, was conjugated to various linker-payloads (as per 0033 conjugates in Examples 50-110) and tested in Acute Myeloid Leukemia (AML) xenograft models. For each model described below the first dose was given on Day 0. The tumors were measured at least once a week and their volume was calculated with the formula: tumor volume (mm^3)=0.5×(tumor width^2)(tumor length). The mean tumor volumes (±S.E.M.) for each treatment group were calculated having a maximum of 10 animals and a minimum of 4 animals to be included. All animal experiments were conducted in a facility accredited by the Association for Assessment of Laboratory Animal Care under Institutional Animal Care and Use Committee guidelines and appropriate animal research approval.
The effects of anti-CD33 ADCs were examined in immunodeficient mice on the in vivo growth of human tumors. For subcutaneous (sc) AML models, 10×10^6 TF-1 cells were implanted subcutaneously in the flank of female Athymic nu/nu mice. When the tumors reached an average volume of 300 mm^3, animals were staged to ensure uniformity of the tumor size among various treatment groups. The TF-1 AML sc xenograft model was dosed intravenously one time every four days for four cycles (Q4dx4) with PBS vehicle or humanized anti-CD33 […] at the doses provided in Tables 11-13.

Usually IC50 stands for the concentration at which inhibition is half-maximal. Regarding `CCN[C@H]1CO[C@@H](O[C@H]2[C@H](O[C@H]3C#C/C=C\C#C[C@]4(O)CC(=O)C(NC(=O)OC)=C3/C4=C\CSSc3ccccn3)O[C@H](C)[C@@H](NO[C@H]3C[C@H](O)[C@H](SC(=O)c4c(C)c(I)c(O[C@@H]5O[C@@H](C)[C@H](O)[C@@H](OC)[C@H]5O)c(OC)c4OC)[C@@H](C)O3)[C@@H]2O)C[C@@H]1OC` [Example P4], the half-inhibitory concentration (IC50) worked out at 0.056 nM in assay [1]; 0.017 nM in assay [2]; 0.036 nM in [3]; 0.094 nM in assay [4]; 0.033 nM in assay [5]; 0.011 nM in assay [6]. Further, the IC50 was determined as 0.184 nM in [7] and 0.086 nM in assay [8].

On to `CCN[C@H]1CO[C@@H](O[C@H]2[C@H](O[C@H]3C#C/C=C\C#C[C@]4(O)CC(=O)C(NC(=O)OC)=C3/C4=C\CSSC(C)(C)CC(=O)NN)O[C@H](C)[C@@H](NO[C@H]3C[C@H](O)[C@H](SC(=O)c4c(C)c(I)c(O[C@@H]5O[C@@H](C)[C@H](O)[C@@H](OC)[C@H]5O)c(OC)c4OC)[C@@H](C)O3)[C@@H]2O)C[C@@H]1OC` [Example P7], for which the IC50 in [1] is 0.161 nM; in [2], 0.124 nM; in assay [3], 1.22 nM; in assay [4], 0.075 nM; in assay [5], 1.03 nM; in assay [6], 0.152 nM. Besides, the half-inhibitory concentration (IC50) in assay [7] was more than 90 nM; in [8], 0.046 nM.

On to `CCN[C@H]1CO[C@@H](O[C@H]2[C@H](O[C@H]3C#C/C=C\C#C[C@]4(O)CC(=O)C(NC(=O)OC)=C3/C4=C\CSSc3ccccc3)O[C@H](C)[C@@H](NO[C@H]3C[C@H](O)[C@H](SC(=O)c4c(C)c(I)c(O[C@@H]5O[C@@H](C)[C@H](O)[C@@H](OC)[C@H]5O)c(OC)c4OC)[C@@H](C)O3)[C@@H]2O)C[C@@H]1OC` [Example P10], for which the IC50 in assay [1] turned out to be 0.005 nM; in assay [2], 0.004 nM; in [3], 0.004 nM; in assay [4] it was 0.03 nM; in assay [5], 0.025 nM; in assay [6], 0.003 nM. Moreover, the IC50 in assay [7] worked out at 0.029 nM; in assay [8], 0.031 nM.

On to `CCN[C@H]1CO[C@@H](O[C@H]2[C@H](O[C@H]3C#C/C=C\C#C[C@]4(O)CC(=O)C(NC(=O)OC)=C3/C4=C\CSSC(C)C(=O)OCC)O[C@H](C)[C@@H](NO[C@H]3C[C@H](O)[C@H](SC(=O)c4c(C)c(I)c(O[C@@H]5O[C@@H](C)[C@H](O)[C@@H](OC)[C@H]5O)c(OC)c4OC)[C@@H](C)O3)[C@@H]2O)C[C@@H]1OC` (some centres unmarked) [Example P11], for which the half-maximal inhibitory concentration (IC50) in [1] is 0.002 nM; in assay [2], 0.002 nM; in assay [3], 0.003 nM; in [4] it was 0.006 nM; in [5], 0.008 nM; in [6] it was 0.001 nM. Also, the results for the IC50 in assay [7] and in assay [8] were 0.03 nM and 0.007 nM, respectively.

As for `CCN[C@H]1CO[C@@H](O[C@H]2[C@H](O[C@H]3C#C/C=C\C#C[C@]4(O)CC(=O)C(NC(=O)OC)=C3/C4=C\CSSC(C)(C)C(=O)O)O[C@H](C)[C@@H](NO[C@H]3C[C@H](O)[C@H](SC(=O)c4c(C)c(I)c(O[C@@H]5O[C@@H](C)[C@H](O)[C@@H](OC)[C@H]5O)c(OC)c4OC)[C@@H](C)O3)[C@@H]2O)C[C@@H]1OC` [Example P12], the IC50 in assay [1] was found to be 0.033 nM; in assay [2], 0.04 nM; in assay [3] it was 0.102 nM; in assay [4], 0.687 nM; in assay [5] it was 4.16 nM; in assay [6] it was 0.005 nM. Also, the IC50 stood at 0.245 nM in [7] and 0.64 nM in assay [8].

For `CCN[C@H]1CO[C@@H](O[C@H]2[C@H](O[C@H]3C#C/C=C\C#C[C@]4(O)CC(=O)C(NC(=O)OC)=C3/C4=C\CSSc3ccc(C(=O)O)cc3)O[C@H](C)[C@@H](NO[C@H]3C[C@H](O)[C@H](SC(=O)c4c(C)c(I)c(O[C@@H]5O[C@@H](C)[C@H](O)[C@@H](OC)[C@H]5O)c(OC)c4OC)[C@@H](C)O3)[C@@H]2O)C[C@@H]1OC` [Example P13], the concentration for half-maximal inhibition (IC50) in assay [1] stood at 0.022 nM; in assay [2], 0.044 nM; in assay [3] it was 0.039 nM; in assay [4] it was 0.792 nM; in assay [5], 0.982 nM; in assay [6], 0.023 nM. For the same compound, the IC50 in [7] came out at 0.331 nM; in assay [8], 0.536 nM.

For `CCN[C@H]1CO[C@@H](O[C@H]2[C@H](O[C@H]3C#C/C=C\C#C[C@]4(O)CC(=O)C(NC(=O)OC)=C3/C4=C\CSSC3CCNCC3)O[C@H](C)[C@@H](NO[C@H]3C[C@H](O)[C@H](SC(=O)c4c(C)c(I)c(O[C@@H]5O[C@@H](C)[C@H](O)[C@@H](OC)[C@H]5O)c(OC)c4OC)[C@@H](C)O3)[C@@H]2O)C[C@@H]1OC` [Example P16], the IC50 came to 0.077 nM in assay [1]; 0.024 nM in [2]; 0.071 nM in assay [3]; 0.035 nM in assay [4]; 0.045 nM in assay [5]; 0.015 nM in assay [6]. The IC50 in [7] was determined as 0.15 nM; in assay [8], 0.023 nM.

Take `CCN(CC(=O)O)[C@H]1CO[C@@H](O[C@H]2[C@H](O[C@H]3C#C/C=C\C#C[C@]4(O)CC(=O)C(NC(=O)OC)=C3/C4=C\CSSC(C)C)O[C@H](C)[C@@H](NO[C@H]3C[C@H](O)[C@H](SC(=O)c4c(C)c(I)c(O[C@@H]5O[C@@H](C)[C@H](O)[C@@H](OC)[C@H]5O)c(OC)c4OC)[C@@H](C)O3)[C@@H]2O)C[C@@H]1OC` [Example P50]: the half-maximal inhibitory concentration (IC50) worked out at 0.438 nM in [1]; 0.372 nM in [2]; 3.93 nM in assay [3]; 0.775 nM in [4]; 7.33 nM in assay [5]; 0.127 nM in assay [6]. Further, the figures for the IC50 in [7] and in assay [8] were 17.9 nM and 1.05 nM, respectively.

“Mylotarg®: "anti-CD33 humanized monoclonal antibody conjugated to calicheamicin for the treatment of acute myelogenous leukemia"”: in assay [9], the “efficacy in TF-1 AML xenografts” value is listed as “ineffective”.
